This assay deals with T1, Recombinant human CDK9/cyclin T1 (Homo sapiens, UniProt P50750).
T1 construct: purchased Carna bioscience 04-110
Description: CDK9 enzyme inhibitory activity (ADP-Glo kinase assay). The assay is classed as biochemical. To be noted: CDK9 enzyme activity, average of two independent repeats; for inhibition at 0.01 µM: compound 10 nM, read-out: Inhibition rate at different concentrations (%) 10 nM; for inhibition at 0.1 µM: compound 100 nM, read-out: Inhibition rate at different concentrations (%) 100 nM. As for the experimental part: Experimental method: Recombinant human CDK9/cyclin T1 (Carna bioscience, Cat #04-110) was diluted with dilution buffer (20 mM Tris HCl (pH 7.5), 0.02% Triton X-100, 0.01% BSA, 2 mM DTT, 0.5 mM Na3VO4, 10% Glycerol) to […], the substrates CDK7/9 tide (ThermoFisher, Cat #PV5090) and ATP (sigmaaldrich, Cat #A1852) were diluted with assay buffer (25 mM Tris HCl (pH7.5), 10 mM MgCl2, 0.5 mM EGTA (pH 8), 0.5 mM Na3VO4, 5 mMb-glycerol phosphate, 0.1% Triton X-100, 2.5 mM DTT) to final concentrations of 100 μM and […] respectively, aliquot and set aside. 2 μl of diluted recombinant human CDK9/cyclin T1, 1 μl of test compound, and 2 μl of diluted substrate CDK7/9 tide containing ATP were added to the 384-well plate. […] The positive control was the well in which enzyme and substrate were co-incubated, and the negative control was the well in which dilution buffer and substrate were co-incubated. The inhibition rate was calculated according to the following formula.

T1 sequence (P50750 whole entry): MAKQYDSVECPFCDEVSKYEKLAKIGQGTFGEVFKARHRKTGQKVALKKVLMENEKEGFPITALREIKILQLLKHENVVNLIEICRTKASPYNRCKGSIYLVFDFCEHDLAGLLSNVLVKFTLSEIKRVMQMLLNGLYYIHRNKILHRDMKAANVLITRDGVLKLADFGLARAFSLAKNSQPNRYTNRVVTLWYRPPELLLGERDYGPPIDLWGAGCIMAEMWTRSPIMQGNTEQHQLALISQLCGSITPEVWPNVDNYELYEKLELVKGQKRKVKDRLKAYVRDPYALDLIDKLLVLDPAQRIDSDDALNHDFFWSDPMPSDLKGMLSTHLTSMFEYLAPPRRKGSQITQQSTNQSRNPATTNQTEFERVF
T1 sequence (O60563 whole entry partner): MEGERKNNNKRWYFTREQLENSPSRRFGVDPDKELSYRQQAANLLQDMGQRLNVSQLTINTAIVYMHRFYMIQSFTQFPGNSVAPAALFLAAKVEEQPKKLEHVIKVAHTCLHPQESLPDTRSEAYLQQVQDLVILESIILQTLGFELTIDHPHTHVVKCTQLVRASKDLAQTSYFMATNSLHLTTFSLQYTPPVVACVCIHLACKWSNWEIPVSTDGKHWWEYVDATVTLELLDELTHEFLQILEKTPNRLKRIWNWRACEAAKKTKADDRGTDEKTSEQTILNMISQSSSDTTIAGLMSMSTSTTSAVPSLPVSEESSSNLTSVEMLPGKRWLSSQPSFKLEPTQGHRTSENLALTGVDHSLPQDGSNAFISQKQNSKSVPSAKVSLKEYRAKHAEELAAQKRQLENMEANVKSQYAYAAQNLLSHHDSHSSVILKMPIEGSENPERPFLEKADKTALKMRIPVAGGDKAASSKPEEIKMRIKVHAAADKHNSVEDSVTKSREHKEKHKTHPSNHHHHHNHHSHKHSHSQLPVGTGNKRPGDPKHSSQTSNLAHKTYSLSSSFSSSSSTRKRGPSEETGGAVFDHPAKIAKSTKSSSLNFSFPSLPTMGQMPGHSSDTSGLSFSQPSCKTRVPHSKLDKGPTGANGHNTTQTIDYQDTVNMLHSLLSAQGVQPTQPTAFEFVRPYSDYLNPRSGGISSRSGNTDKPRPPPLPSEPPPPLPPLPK

For `CC(=O)N[C@H]1CC[C@H](NC(=O)Nc2cc(-c3cnn4c3CC(C)(C)C4)c(Cl)cn2)C1` (stereo in doubt) [Example 74, N-((1S,3S)-3-(3-(5-chloro-4-(5,5-dimethyl-5,6-dihydro-4H-pyrrolo[1,2-b]pyrazol-3-yl)pyridin-2-yl)ureido)cyclopentyl)acetamide], the inhibition at 0.01 µM was found to be 63% and the inhibition at 0.1 µM stood at 92%.

Take `COc1cc(F)ccc1-c1ccnc(NC(=O)NC2CCC(NC(=O)OC(C)(C)C)CC2)c1` (centres unmarked) [Example 1, tert-butyl((1r,4r)-4-(3-(4-(4-fluoro-2-methoxyphenyl)pyridin-2-yl)ureido)cyclohexyl) carbamate]: the inhibition at 0.01 µM turned out to be 48.5% and the inhibition at 0.1 µM amounted to 97.3%.

In the case of `COc1cc(F)ccc1-c1ccnc(NC(=O)NC2CCC(NC(C)=O)CC2)c1` (centres unmarked) [Example 4, N-((1r,4r)-4-(3-(4-(4-fluoro-2-methoxyphenyl)pyridin-2-yl)ureido)cyclohexyl)acetamide], the inhibition at 0.01 µM was found to be 45.1% and the inhibition at 0.1 µM came out at 93.2%.

`COc1cc(F)c(F)cc1-c1ccnc(NC(=O)NC2CCC(N)CC2)c1` (centres unmarked) [Example 5, 1-((1r,4r)-4-aminocyclohexyl)-3-(4-(4,5-difluoro-2-methoxyphenyl)pyridin-2-yl)urea]: the inhibition at 0.01 µM turned out to be 46.2% and the inhibition at 0.1 µM was 88.2%.

On to `COc1cc(-c2ccnc(NC(=O)NC3CCC(N)CC3)c2)ccc1F` (centres unmarked) [Example 6, 1-((1r,4r)-4-aminocyclohexyl)-3-(4-(4-fluoro-3-methoxyphenyl)pyridin-2-yl)urea], for which the inhibition at 0.01 µM came to 32% and the inhibition at 0.1 µM was found to be 74.1%.

For the compound `COc1cc(-c2ccnc(NC(=O)NC3CCC(N)CC3)c2)c(F)cc1F` (centres unmarked) [Example 7, 1-((1r,4r)-4-aminocyclohexyl)-3-(4-(2,4-difluoro-5-methoxyphenyl)pyridine-2-yl)urea], the inhibition at 0.01 µM was 34.3% and the inhibition at 0.1 µM came to 81.1%.

Consider `NC1CCC(NC(=O)Nc2cc(-c3ccc(F)c4ccoc34)ccn2)CC1` (centres unmarked) [Example 8, 1-((1r, 4r)-4-aminocyclohexyl)-3-(4-(4-fluoro-benzofuran-7-yl)pyridin-2-yl) urea], for which the inhibition at 0.01 µM was 23.1% and the inhibition at 0.1 µM is 61.3%.

Take `CC(C)c1c2cc(-c3ccnc(NC(=O)NC4CCC(N)CC4)c3)ccc2nn1C` (centres unmarked) [Example 9, 1-((1r,4r)-4-aminocyclohexyl)-3-(4-(3-isopropyl-2-methyl-2H-indazol-5-yl)pyridin-2-yl)urea]: the inhibition at 0.01 µM is 23% and the inhibition at 0.1 µM is 55.1%.

For the compound `NC1CCC(NC(=O)Nc2cc(-c3ccc(F)cc3Cl)ccn2)CC1` (centres unmarked) [Example 10, 1-((1r,4r)-4-aminocyclohexyl)-3-(4-(2-chloro-4-fluorophenyl)pyridin-2-yl) urea], the inhibition at 0.01 µM was -12.6% and the inhibition at 0.1 µM worked out at 94.6%.

Consider `COCCNC1CCC(NC(=O)Nc2cc(-c3ccc(F)cc3Cl)ccn2)CC1` (centres unmarked) [Example 11, 1-(4-(2-chloro-4-fluorophenyl)pyridin-2-yl)-3-((1r,4r)-4-((2-methoxyethyl)amino)cyclohexyl)urea], for which the inhibition at 0.01 µM was 24.7% and the inhibition at 0.1 µM came to 93.4%.

As for `NC1CCC(NC(=O)Nc2cc(-c3ccc(F)cc3OC(F)(F)F)ccn2)CC1` (centres unmarked) [Example 12, 1-((1r,4r)-4-aminocyclohexyl)-3-(4-(4-fluoro-2-trifluoromethoxyphenyl)pyridin-2-yl) urea], the inhibition at 0.01 µM amounted to 19.2% and the inhibition at 0.1 µM amounted to 69.1%.

As for `Cn1cc(-c2ccnc(NC(=O)NC3CCC(N)CC3)c2)cn1` (centres unmarked) [Example 13, 1-((1r,4r)-4-aminocyclohexyl)-3-(4-(1-methyl-1H-pyrazol-4-yl)pyridin-2-yl) urea], the inhibition at 0.01 µM was -17.5% and the inhibition at 0.1 µM amounted to 72.3%.

Regarding `COCCNC1CCC(NC(=O)Nc2cc(-c3cnn(C)c3)ccn2)CC1` (centres unmarked) [Example 14, 1-((1r,4r)-4-((2-methoxyethyl)amino)cyclohexyl)-3-(4-(1-methyl-1H-pyrazol-4-yl)pyridine-2-yl) urea], the inhibition at 0.01 µM was -7.6% and the inhibition at 0.1 µM was 72.3%.

Consider `CC1(C)Cc2c(-c3ccnc(NC(=O)NC4CCC(N)CC4)c3)cnn2C1` (centres unmarked) [Example 15, 1-((1r,4r)-4-aminocyclohexyl)-3-(4-(5,5-dimethyl-5,6-dihydro-4H-pyrrole [1,2-b]pyrazole-3-yl)pyridin-2-yl) urea], for which the inhibition at 0.01 µM is 51.1% and the inhibition at 0.1 µM amounted to 91.5%.

On to `CC(=O)NC1CCC(NC(=O)Nc2cc(-c3cnn4c3CC(C)(C)C4)ccn2)CC1` (centres unmarked) [Example 16, 1-((1r,4r)-4-(3-(4-(5,5-dimethyl-5,6-dihydro-4H-pyrrolo[1,2-b]pyrazol-3-yl)pyridin-2-yl)ureido)cyclohexyl)acetamide], for which the inhibition at 0.01 µM worked out at 72% and the inhibition at 0.1 µM came to 95.7%.

Regarding `COCCNC1CCC(NC(=O)Nc2cc(-c3cnn4c3CC(C)(C)C4)ccn2)CC1` (centres unmarked) [Example 17, 1-(4-(5,5-dimethyl-5,6-dihydro-4H-pyrrolo[1,2-b]pyrazol-3-yl)pyridin-2-yl)-3-((1r,4r)-4-((2-methoxyethyl)amino)cyclohexyl)urea], the inhibition at 0.01 µM is 68.2% and the inhibition at 0.1 µM worked out at 90.2%.

`COc1cc(F)ccc1-c1cc(NC(=O)NC2CCC(N)CC2)ncc1Cl` (centres unmarked) [Example 18, 1-((1r,4r)-4-aminocyclohexyl)-3-(5-chloro-4-(4-fluoro-2-methoxyphenyl)pyridin-2-yl)urea]: the inhibition at 0.01 µM came to 84% and the inhibition at 0.1 µM was found to be 86%.

Turning to `COCCNC1CCC(NC(=O)Nc2cc(-c3ccc(F)cc3OC)c(Cl)cn2)CC1` (centres unmarked) [Example 19, 1-(5-chloro-4-(4-fluoro-2-methoxyphenyl)pyridin-2-yl)-3-((1r,4r)-4-((2-methoxyethyl)amino)cyclohexyl)urea], the inhibition at 0.01 µM was 57.1% and the inhibition at 0.1 µM worked out at 87.4%.

As to `COc1cc(F)ccc1-c1cc(NC(=O)NC2CCC(NCCO)CC2)ncc1Cl` (centres unmarked) [Example 20, 1-(5-chloro-4-(4-fluoro-2-methoxyphenyl)pyridin-2-yl)-3-((1r,4r)-4-((2-hydroxyethyl)amino)cyclohexyl)urea], the inhibition at 0.01 µM was 38.9% and the inhibition at 0.1 µM came to 88.3%.

Turning to `COCC(C)NC1CCC(NC(=O)Nc2cc(-c3ccc(F)cc3OC)c(Cl)cn2)CC1` (centres unmarked) [Example 21, 1-(5-chloro-4-(4-fluoro-2-methoxyphenyl)pyridin-2-yl)-3-((1r,4r)-4-((1-methoxypropan-2-yl)amino)cyclohexyl)urea], the inhibition at 0.01 µM was 45.2% and the inhibition at 0.1 µM turned out to be 91%.

`COc1cc(F)ccc1-c1cc(NC(=O)NC2CCC(NC(C)=O)CC2)ncc1Cl` (centres unmarked) [Example 22, N-((1r,4r)-4-(3-(5-chloro-4-(4-fluoro-2-methoxyphenyl)pyridin-2-yl)ureido)cyclohexyl)acetamide]: the inhibition at 0.01 µM was 62.9% and the inhibition at 0.1 µM was determined as 93.5%.

As to `COc1cc(F)ccc1-c1cc(NC(=O)NC2CCC(NC(C)C)CC2)ncc1Cl` (centres unmarked) [Example 23, 1-(5-chloro-4-(4-fluoro-2-methoxyphenyl)pyridin-2-yl)-3-((1r,4r)-4-(isopropylamino)cyclohexyl)urea], the inhibition at 0.01 µM was found to be 37.2% and the inhibition at 0.1 µM was 87.4%.

The values above are taken from US20240351986A1, “UREA COMPOUND CONTAINING 2-HETEROAROMATIC RING SUBSTITUTION, PREPARATION METHOD THEREFOR AND USE THEREOF” (SHANGHAI INSTITUTE OF MATERIA MEDICA, CHINESE ACADEMY OF …, priority 2021, published 2024).
